The values that follow come from patent US20040053893A1, “Method of assaying iysophospholipase d activity” (priority 2000, published 2004).

Assay [1] concerns the target T1, purified LPLD (bovine lysophospholipase D) (Bos taurus, UniProt A1A4K5).
T1 construct: The starting material, FCS, and respective fractions obtained in the above-mentioned (1)-(7) were assayed for lysophospholipase D activity; from tissue; host or cells: fetal calf serum (FCS), chromatographic purification
The experiment in a line: LPLD activity assay using purified LPLD at various reaction pHs (Example 12). In kind it is biochemical. The settings on record: purified LPLD of Example 9, 37° C., 405 nm (FIG. 5). As to the method:
(2) Preparation of Reagents
Reagent C: 1-myristoyl-phosphatidyl-p-nitrophenol was dissolved in reagent B to correspond to 10 mmol/L and used as reagent C.
For assay, biochemical automatic analyzer (Toshiba Corporation: TBA-80FR NEO) was used. The purified LPLD (8 μL) obtained in Example 9 and reagent A (240 μL) were pre-warmed at 37° C. for about 15 min, and after addition of reagent C (80 μL), the absorbance at dominant wavelength 405 nm and sub wavelength of 505 nm was measured with lapse of time for about 15 min.

Another assay deals with LPLD. The experiment in a line: Substrate specificity of purified LPLD or recombinant LPLD (Table 1). In kind it is biochemical. From the text: The thus-obtained purified LPLD or recombinant LPLD has a substrate specificity as shown in, for example, Table 1.
In another assay the target is LPLD in human serum (Homo sapiens, UniProt Q13822). The experiment in a line: LPLD activity assay with chromogenic substrates, human serum sample (Example 6). The settings on record: pH 8.0, 37° C., p-nitrophenol release at 405 nm, compared with 1-acyl-2-hydroxy substrates B and D (FIG. 2-1).
For assay [2], the target named is T2, LPLD in control serum (CONSERA, Lipid Serum II) (Homo sapiens, UniProt Q13822).
T2 construct: Two kinds of commercially available control serum; purchased Nissui Pharmaceutical Co. (CONSERA); Eiken Chemical Co., Ltd. (Lipid Serum II); host or cells: commercial control serum
The experiment in a line: LPLD activity assay at various reaction pHs, control sera (Example 5). In kind it is biochemical. The settings on record: reagent B pH 7.6-8.6, 37° C. (FIG. 1). From the text: (1) Preparation of Reagent

A further assay has as its target human serum albumin (Homo sapiens, UniProt P02768). The settings on record: 5% human serum albumin, reagent B pH 7.6-8.6, 37° C. (FIG. 1).

Sequence of human serum albumin (P02768 25-609): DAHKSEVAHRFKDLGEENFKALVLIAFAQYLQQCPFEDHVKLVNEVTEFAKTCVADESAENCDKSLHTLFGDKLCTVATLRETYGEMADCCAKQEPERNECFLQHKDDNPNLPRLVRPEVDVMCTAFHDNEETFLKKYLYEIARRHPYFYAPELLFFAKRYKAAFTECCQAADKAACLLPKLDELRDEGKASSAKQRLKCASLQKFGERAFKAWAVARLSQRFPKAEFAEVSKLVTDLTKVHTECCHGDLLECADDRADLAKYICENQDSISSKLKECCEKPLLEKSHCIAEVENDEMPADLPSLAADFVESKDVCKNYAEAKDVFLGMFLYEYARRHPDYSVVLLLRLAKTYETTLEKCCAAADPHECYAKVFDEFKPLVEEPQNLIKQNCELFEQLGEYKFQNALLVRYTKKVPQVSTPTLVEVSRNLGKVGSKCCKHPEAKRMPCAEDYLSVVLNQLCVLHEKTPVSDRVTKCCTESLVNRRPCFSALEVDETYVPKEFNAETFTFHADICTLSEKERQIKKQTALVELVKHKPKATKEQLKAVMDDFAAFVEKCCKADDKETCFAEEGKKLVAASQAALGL
Description for LPLD in human serum: 2-[4-(2-hydroxyethyl)-1-piperazinyl]ethanesulfonic acid (100 mmol/L), Triton X-100 (0.01%)
Using human serum as a sample, 5% human serum albumin (fatty acid free: Sigma) solution was used for determining the activity in albumin fraction in the serum, and a 5 U/mL solution of Streptomyces-derived PLD (product abbreviation PLDP: Asahi Chemical Industry Co., Ltd.) was used for determining the reactivity with phospholipase D (PLD).
Each sample (10 μL) and reagent A (150 μL) were dispensed to a microplate and the plate was incubated at 37° C. for about 5 min. Thereto was added reagent C (50 μL) and the absorbance at a dominant wavelength of 405 nm and sub wavelength of 540 nm was measured with the lapse of time. The LPLD activity was determined based on changes in absorbance per minute that depend on p-nitrophenol released by the action of LPLD. The activity is expressed by the amount of p-nitrophenol released in one minute per 1 mL of the reaction mixture.
Excerpt for human serum albumin: Reagent A: N-(2-hydroxyethyl)piperazine-N′-3-propanesulfonic acid (200 mmol/L), Triton X-100 (0.02%)
Reagent B: reagent A was separated and adjusted to pH 7.6, 7.8, 8.0, 8.2, 8.4 and 8.6, diluted 2-fold to give reagent B having various pHs.
citric acid monohydrate (10 mmol/L), Triton X-100 (0.01%), 1-hydroxy-2-linoleoyl-phosphatidyl-p-nitrophenol (Example 3; 10 mmol/L) prepared in the above-mentioned Example.
Two kinds of commercially available control serum, respective test sample 1 (CONSERA: Nissui Pharmaceutical Co.) and test sample 2 (Lipid Serum II: Eiken Chemical Co., Ltd.), and 5% human serum albumin (fatty acid free: Sigma) solution for determination of the activity of albumin fraction in the serum, were used.
Each sample (10 μL) and reagent B (150 μL) were dispensed to a microplate and the plate was incubated at 37° C. for about 5 min. Thereto was added reagent C (50 μL) and the absorbance at a dominant wavelength of 405 nm and sub wavelength of 540 nm was measured with the lapse of time. The LPLD activity was determined based on changes in absorbance per minute that depend on p-nitrophenol released by the action of LPLD. The activity is expressed by the amount of p-nitrophenol released in one minute per 1 mL of the reaction mixture.

Turning to `CCCCCCCCCCCCCC(=O)OCC(O)COP(=O)(O)Oc1ccc([N+](=O)[O-])cc1` (centres unmarked) [1-myristoyl-phosphatidyl-p-nitrophenol], the “LPLD activity as a function of reaction pH” value in assay [1] was “stronger activity was found when pH was on the alkaline side”.
Take lysophosphatidylethanolamine: the Reaction product result in the assay on LPLD is “lysophosphatidic acid,”.
Turning to `CCCCC/C=C\C/C=C\CCCCCCCC(=O)OC(CO)COP(=O)(O)Oc1ccc([N+](=O)[O-])cc1` (centres unmarked) [substrate A], the “response to human serum” value at LPLD in human serum is “higher”. Moreover, the “LPLD activity as a function of reaction pH” value in assay [2] was “potent when pH is on the alkaline side”. Besides, the “activity in a human serum albumin fraction as a function of reaction pH” value at human serum albumin is reported as “also increases”.
On to lysophosphatidylserine, for which the Reaction product result with LPLD is recorded as “lysophosphatidic acid, serine”.
With `CCCCCCCC/C=C\CCCCCCCC(=O)OC(CO)COP(=O)(O)Oc1ccc([N+](=O)[O-])cc1` (centres unmarked) [substrate C], the “response to human serum” value on LPLD in human serum is on record as “higher”.
For lysophosphatidylcholine, in the assay on LPLD, the Reaction product result was “lysophosphatidic acid, choline”.
For “1-alkenyl-2-hydroxy-glycerophosphocholine”, the Reaction product in the assay on LPLD is listed as 1-alkenyl-2-hydroxy-glycero-3-.
The same measure, in the same setting: the entry for `CCCCCCCCCCCCC/C=C/[C@@H](O)[C@@H](N)COP(=O)([O-])OCC[N+](C)(C)C` [lysosphingomyelin] is “Sphingosine-1-phosphate,”; for lysophosphatidylinositol it is “lysophosphatidic acid,”.
